In PubChem BioAssay (NCI):
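Protocol summary: plate cells (96-well), add compound at 5 concentrations, incubate 48 h, interpolate endpoints linearly. GI50: concentration for 50% inhibition of growth. The concentration for full growth arrest is given as TGI.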

Experiments:
Assay in all cases: NCI tumour cell line growth inhibition, 48 h
HOP-62 NSCLC = test system: HOP-62 NSCLC
SR leukemia = test system: SR leukemia
HCT-116 colon = test system: HCT-116 colon
SK-MEL-5 melanoma = test system: SK-MEL-5 melanoma
MOLT-4 leukemia = test system: MOLT-4 leukemia
UO-31 renal = test system: UO-31 renal
SF-295 CNS = test system: SF-295 CNS
SK-OV-3 ovarian = test system: SK-OV-3 ovarian
BT-549 breast = test system: BT-549 breast

| SMILES | TGI (HOP-62 NSCLC) [µM] | TGI (SR leukemia) [µM] | TGI (HCT-116 colon) [µM] | TGI (SK-MEL-5 melanoma) [µM] | TGI (MOLT-4 leukemia) [µM] | TGI (UO-31 renal) [µM] | TGI (SF-295 CNS) [µM] | TGI (SK-OV-3 ovarian) [µM] | TGI (BT-549 breast) [µM] | GI50 (HOP-62 NSCLC) [µM] | GI50 (SR leukemia) [µM] | GI50 (SK-MEL-5 melanoma) [µM] | GI50 (MOLT-4 leukemia) [µM] | GI50 (UO-31 renal) [µM] |
| --- | --- | --- | --- | --- | --- | --- | --- | --- | --- | --- | --- | --- | --- | --- |
| Cc1cc(C)c2c(=O)n(CN3CC4Nc5ccccc5C4C3)sc2n1 (configuration not stated) | > 100 | > 100 | 43.7 | > 100 | 95.3 | 32.5 | > 100 | > 100 | > 100 |  |  |  |  |  |
| CC(C)=CCc1c2c(c3occ(-c4ccc(O)c(O)c4)c(=O)c3c1O)C=CC(C)(C)O2 | 4.4 | 2.12 | 4.29 | 7.72 | 1.43 | 2.9 | 12.8 | 20.5 | 13.8 |  |  |  |  |  |
| CCN(CC)CCOC(NC(C)=O)(c1ccccc1)c1ccccc1 | > 100 | > 100 | > 100 | > 100 | > 100 | > 100 | > 100 | > 100 |  |  |  |  |  |  |
| COc1ccc(Nc2nc3ccc(C(F)(F)F)cc3nc2C(=O)O)cc1OC | 75.4 | 58 | 80 | 48.3 | 43.5 | 43.7 | 77.6 |  | 71.5 |  |  |  |  |  |
| C[n+]1c(-c2ccccc2)cc2/c(=C\c3ccc([N+](=O)[O-])cc3)c3ccccc3n21 | 19.3 | > 41.7 | 14 | > 19.7 | > 30.8 | 35.5 | 21.4 | 25.4 | 1.67 |  |  |  |  |  |
| CN(C)c1nc(=NCc2ccncc2)ss1 | > 100 | 44.6 | 40.7 | > 100 | 51.1 | > 80.9 | > 100 | > 64.6 | 44 | > 100 | 19 | > 100 |  |  |
| O=C(Nc1cccc2cnccc12)c1cc2c(cc1Cl)Sc1nccn1S2(=O)=O | 39.7 | 48.9 | 20 | 26.2 | 59.4 | 55.6 | 43.5 | 86 | 40.2 |  |  |  |  |  |
| C=C(Cl)/C(=C\Cl)CCC(Br)C(C)C (configuration not stated) | > 100 | > 100 | > 100 | > 100 | > 100 | > 100 | > 100 | > 100 | > 100 |  |  |  |  |  |
| COc1cccc(-c2cc(=O)c3c(C)cc(C)nc3[nH]2)c1 | > 65.1 | 0.513 | > 59.9 | 14.8 | > 71.9 | > 100 | > 73.6 | > 100 | > 100 |  |  |  |  |  |
| O=C1c2ccccc2CN1c1ccc(O)cc1 | > 100 | > 100 | > 100 | > 100 | > 100 |  | > 100 | > 100 | > 100 |  |  |  |  |  |
| N#Cc1c(-c2ccccc2)/c(=C\Nc2ccc(Cl)cc2)c(=O)n2c1nc1ccccc12 | > 100 |  | 19.6 | > 100 |  | > 100 | > 100 | > 100 | > 100 |  |  |  |  |  |
| CCCCCCCCCC[C@H](O)[C@H]1CC[C@H]([C@H]2CC[C@H]([C@H](O)CC[C@H](O)CCCCCCC[C@@H](O)CC3=C[C@H](C)OC3=O)O2)O1 |  |  | > 100 | 3.93 | 80.1 | > 100 | > 100 |  | > 100 |  |  |  | 19.9 | 23.6 |
| OC[C@@H](O)[C@H]1NC[C@@H](O)[C@H]1O | > 100 | > 100 | > 100 | > 100 | > 100 | > 100 | > 100 | > 100 | > 100 |  |  |  |  |  |
| CC(CC(C#N)(c1ccccc1)c1ccccc1)N1CCCCC1 (configuration not stated) | 88.4 |  | 57.7 | 33.6 | 49.3 | 79.6 | 65.8 | > 100 | > 100 |  |  |  |  |  |
| C=C1[C@@H](O)C[C@@]23CC[C@@H]4[C@@]5(C)CC[C@@H](OC(C)=O)C(C)(C)[C@@H]5C[C@@H](OC5OC(COC(C)=O)C(O)C(O)C5O)[C@@]4(C)C2=CC[C@H]3[C@H]1C (some centres not stated) | 25.8 | 5.07 | 10.7 | 12.3 | 8.32 | 28 | 14.8 | 26.1 | 21.4 |  |  |  |  |  |
| COc1ccc(N2C(=O)c3c4c(c5c([nH]c6ncccc65)c3C2=O)CCC(C(C)(C)C)C4)cc1 (configuration not stated) | > 100 | > 100 | > 100 | > 100 |  | > 100 | > 100 | > 100 | > 100 |  |  |  |  |  |
| CC(=O)N/N=C1/NN(C(C)=O)C2(S1)C(=O)Nc1ccc(Br)cc12 (configuration not stated) | > 100 | > 100 | > 100 | > 100 | > 100 | > 100 | > 100 |  | > 100 |  |  |  |  |  |
| CC(=O)OC[C@]1(C(=O)C(O)c2ccoc2)[C@H](C)CC[C@@]23COC(=O)C2=CCC[C@@H]31 (some centres not stated) |  | > 10 | > 10 | > 10 | > 10 | > 10 | > 10 | > 10 | > 10 |  |  |  |  |  |
| Cc1ccc(S(=O)(=O)Oc2cc(N)c3c(n2)CCC3)cc1 | > 100 |  | > 100 | > 100 | > 100 | > 100 | > 100 | > 100 | > 100 |  |  |  |  |  |
| CC(=O)NS(=O)(=O)c1ccc(NC(=O)c2c3ccccc3nc3ccccc23)cc1 | > 100 | > 100 | > 100 | > 100 | > 100 | > 100 | > 100 | > 100 | > 100 |  |  |  |  |  |
| O=C1NCCCc2nonc21 | > 100 | > 100 | > 100 | > 100 | > 100 | > 100 | > 100 | > 100 |  |  |  |  |  |  |
| O=C(O)C1CC(c2ccc(F)cc2)=Nc2ccc(F)cc2S1 (configuration not stated) |  |  | > 100 | > 100 | > 100 | > 100 | > 100 | > 100 | > 100 |  |  |  |  |  |
| O=C1CCC(=Nc2ccc(Cl)cc2)N1C(=O)COc1ccc(OCC(=O)N2C(=O)CSC2=Nc2ccc(Cl)cc2)cc1 | > 100 |  | > 100 | > 100 |  | > 100 | > 100 | > 100 | > 100 |  |  |  |  |  |
| CC1(C)C(c2ccccc2)=[N+]([O-])C(C)(C)N1O | > 10 | > 10 | > 10 | > 10 | > 10 |  | > 10 | > 10 | > 10 |  |  |  |  |  |
